Results: patent US8541380B2, “C-aryl glucoside SGLT2 inhibitors and pharmaceutical compositions comprising same” (Green Cross Corporation, priority 2009, dated 2013)

Each compound was assayed against human SGLT2 (Homo sapiens (Human), UniProt P31639) (assay: hSGLT2 inhibitory activity, sodium-dependent 14C-AMG glucose transport assay in CHO cells expressing hSGLT2). Settings: 14C-AMG uptake, CHO cells expressing hSGLT2, 37° C. for 2 h.
Type: cell-based
Method in brief: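 Stably transfected CHO cells preincubated 10 min at 37 °C in Na⁺-free choline buffer, then 2 h at 37 °C in NaCl uptake buffer (pH 7.4) with 1 mM unlabeled AMG plus 8 uM ¹⁴C-AMG and inhibitor or DMSO. Washed cells counted by liquid scintillation.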

Sequence of human SGLT2 (P31639 whole entry): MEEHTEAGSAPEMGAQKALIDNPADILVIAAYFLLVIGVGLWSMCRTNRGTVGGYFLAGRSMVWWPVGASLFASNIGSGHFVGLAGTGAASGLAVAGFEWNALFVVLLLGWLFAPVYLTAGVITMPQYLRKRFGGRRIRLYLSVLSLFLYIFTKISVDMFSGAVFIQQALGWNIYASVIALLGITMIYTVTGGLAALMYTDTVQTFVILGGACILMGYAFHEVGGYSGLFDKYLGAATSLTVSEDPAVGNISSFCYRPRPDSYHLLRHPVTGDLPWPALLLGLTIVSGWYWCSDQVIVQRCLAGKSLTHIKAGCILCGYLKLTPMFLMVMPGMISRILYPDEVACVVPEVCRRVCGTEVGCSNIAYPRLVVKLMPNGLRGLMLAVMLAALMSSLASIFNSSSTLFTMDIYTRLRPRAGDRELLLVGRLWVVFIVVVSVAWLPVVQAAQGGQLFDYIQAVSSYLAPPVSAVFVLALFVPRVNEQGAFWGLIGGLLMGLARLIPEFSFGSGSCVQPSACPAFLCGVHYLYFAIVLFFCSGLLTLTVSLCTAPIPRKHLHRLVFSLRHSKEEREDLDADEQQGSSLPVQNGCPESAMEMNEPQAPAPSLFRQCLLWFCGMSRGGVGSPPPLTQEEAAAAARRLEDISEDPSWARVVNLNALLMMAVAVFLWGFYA

Row | Compound | IC50 [nM]
1 | OC[C@H]1O[C@@H](c2ccc(Cl)c(Cc3ccc(-c4ccoc4)nn3)c2)[C@H](O)[C@@H](O)[C@@H]1O [Example 63, (2S,3R,4R,5S,6R)-2-(4-Chloro-3-((6-(furan-3-yl)pyridazin-3-yl)methyl)phenyl)-6-(hydroxymethyl)-tetrahydro-2H-pyran-3,4,5-triol] | 61.3
2 | OC[C@H]1O[C@@H](c2ccc(Cl)c(Cc3ccc(-c4ccc5c(c4)OCO5)nn3)c2)[C@H](O)[C@@H](O)[C@@H]1O [Example 67, (2S,3R,4R,5S,6R)-2-(3-((6-(Benzo[d][1,3]dioxol-5-yl)pyridazin-3-yl)methyl)-4-chlorophenyl)-6-(hydroxymethyl)-tetrahydro-2H-pyran-3,4,5-triol] | 82.7
3 | Cc1ccc(Cc2cc([C@@H]3O[C@H](CO)[C@@H](O)[C@H](O)[C@H]3O)ccc2Cl)nn1 [Example 73, (2S,3R,4R,5S,6R)-2-(4-Chloro-3-((6-methylpyridazin-3-yl)methyl)phenyl)-6-(hydroxymethyl)-tetrahydro-2H-pyran-3,4,5-triol] | 293
4 | CCCc1ccc(Cc2cc([C@@H]3O[C@H](CO)[C@@H](O)[C@H](O)[C@H]3O)ccc2Cl)nn1 [Example 74, (2S,3R,4R,5S,6R)-2-(4-Chloro-3-((6-propylpyridazin-3-yl)methyl)phenyl)-6-(hydroxymethyl)-tetrahydro-2H-pyran-3,4,5-triol] | 237
5 | CC(C)Cc1ccc(Cc2cc([C@@H]3O[C@H](CO)[C@@H](O)[C@H](O)[C@H]3O)ccc2Cl)nn1 [Example 77, (2S,3R,4R,5S,6R)-2-(4-Chloro-3-((6-isobutylpyridazin-3-yl)methyl)phenyl)-6-(hydroxymethyl)-tetrahydro-2H-pyran-3,4,5-triol] | 811
6 | CCSc1ccc(Cc2cc([C@@H]3O[C@H](CO)[C@@H](O)[C@H](O)[C@H]3O)ccc2Cl)nn1 [Example 80, (2S,3R,4R,5S,6R)-2-(4-Chloro-3-((6-(ethylthio)pyridazin-3-yl)methyl)phenyl)-6-(hydroxymethyl)-tetrahydro-2H-pyran-3,4,5-triol] | 71.3
7 | CSc1nnc(Cc2cc([C@@H]3O[C@H](CO)[C@@H](O)[C@H](O)[C@H]3O)ccc2Cl)cc1C [Example 82, (2S,3R,4R,5S,6R)-2-(4-Chloro-3-((5-methyl-6-(methylthio)pyridazin-3-yl)methyl)phenyl)-6-(hydroxymethyl)tetrahydro-2H-pyran-3,4,5-triol] | 1520
8 | Cc1cc(Cc2cc([C@@H]3O[C@H](CO)[C@@H](O)[C@H](O)[C@H]3O)ccc2Cl)n[nH]c1=O [Example 83, 6-(2-Chloro-5-((2S,3R,4R,5S,6R)-3,4,5-trihydroxy-6-(hydroxymethyl)-tetrahydro-2H-pyran-2-yl)benzyl)-4-methylpyridazin-3(2H)-one] | 618
9 | OC[C@H]1O[C@@H](c2ccc(Cl)c(Cc3ccc(N4CCOCC4)nn3)c2)[C@H](O)[C@@H](O)[C@@H]1O [Example 84, (2S,3R,4R,5S,6R)-2-(4-Chloro-3-((6-morpholinopyridazin-3-yl)methyl)phenyl)-6-(hydroxymethyl)-tetrahydro-2H-pyran-3,4,5-triol] | 700
10 | Cc1ccc2nc(Cc3cc([C@@H]4O[C@H](CO)[C@@H](O)[C@H](O)[C@H]4O)ccc3Cl)nnc2c1 [Example 87, (2S,3R,4R,5S,6R)-2-(4-Chloro-3-((7-methylbenzo[e][1,2,4]triazin-3-yl)methyl)phenyl)-6-(hydroxymethyl)tetrahydro-2H-pyran-3,4,5-triol] | 532
11 | OC[C@H]1O[C@@H](c2ccc(Cl)c(Cc3nnc4ccccc4n3)c2)[C@H](O)[C@@H](O)[C@@H]1O [Example 88, (2S,3R,4R,5S,6R)-2-(3-(Benzo[e][1,2,4]triazin-3-ylmethyl)-4-chlorophenyl)-6-(hydroxymethyl)tetrahydro-2H-pyran-3,4,5-triol] | 491
12 | OC[C@H]1O[C@@H](c2ccc(Cl)c(Cc3nccnn3)c2)[C@H](O)[C@@H](O)[C@@H]1O [Example 89, (2S,3R,4R,5S,6R)-2-(3-((1,2,4-triazin-3-yl)methyl)-4-chlorophenyl)-6-(hydroxymethyl)tetrahydro-2H-pyran-3,4,5-triol] | 261
13 | OC[C@H]1O[C@@H](c2ccc(Cl)c(Cc3nncc(-c4ccccc4)n3)c2)[C@H](O)[C@@H](O)[C@@H]1O [Example 90, (2S,3R,4R,5S,6R)-2-(4-Chloro-3-((5-phenyl-1,2,4-triazin-3-yl)methyl)phenyl)-6-(hydroxymethyl)tetrahydro-2H-pyran-3,4,5-triol] | 402
14 | COc1cnc(Cc2cc([C@@H]3O[C@H](CO)[C@@H](O)[C@H](O)[C@H]3O)ccc2Cl)nn1 [Example 91, (2S,3R,4R,5S,6R)-2-(4-Chloro-3-((6-methoxy-1,2,4-triazin-3-yl)methyl)phenyl)-6-(hydroxymethyl)tetrahydro-2H-pyran-3,4,5-triol] | 24.9
15 | OC[C@H]1O[C@@H](c2cc(Cc3nnc(-c4ccco4)s3)cc3ccccc23)[C@H](O)[C@@H](O)[C@@H]1O [Example 92, (2S,3R,4R,5S,6R)-2-(3-((5-(Furan-2-yl)-1,3,4-thiadiazol-2-yl)methyl)naphthalene-1-yl)-6-(hydroxymethyl)-tetrahydro-2H-pyran-3,4,5-triol] | 88.9
16 | COc1c(Cc2nnc(-c3ccco3)s2)cc([C@@H]2O[C@H](CO)[C@@H](O)[C@H](O)[C@H]2O)c2ccccc12 [Example 93, (2S,3R,4R,5S,6R)-2-(3-((5-(Furan-2-yl)-1,3,4-thiadiazol-2-yl)methyl)-4-methoxynaphthalen-1-yl)-6-(hydroxymethyl)-tetrahydro-2H-pyran-3,4,5-triol] | 10.7
17 | OC[C@H]1O[C@@H](c2cc(Cc3nnc(-c4ccco4)s3)c(O)c3ccccc23)[C@H](O)[C@@H](O)[C@@H]1O [Example 94, (2S,3R,4R,5S,6R)-2-(3-((5-(Furan-2-yl)-1,3,4-thiadiazol-2-yl)methyl)-4-hydroxynaphthalen-1-yl)-6-(hydroxymethyl)-tetrahydro-2H-pyran-3,4,5-triol] | 24.8
18 | OC[C@H]1O[C@@H](c2cc(Cc3nnc(-c4ccco4)s3)c3ccccc3c2)[C@H](O)[C@@H](O)[C@@H]1O [Example 95, (2S,3R,4R,5S,6R)-2-(4-((5-(Furan-2-yl)-1,3,4-thiadiazol-2-yl)methyl)naphthalen-2-yl)-6-(hydroxymethyl)-tetrahydro-2H-pyran-3,4,5-triol] | 323
19 | OC[C@H]1O[C@@H](c2cc(Cc3nnc(-c4ccco4)s3)c(Cl)cc2Cl)[C@H](O)[C@@H](O)[C@@H]1O [Example 96, (2S,3R,4R,5S,6R)-2-(2,4-Dichloro-5-((5-(furan-2-yl)-1,3,4-thiadiazol-2-yl)methyl)phenyl)-6-(hydroxymethyl)-tetrahydro-2H-pyran-3,4,5-triol] | 17.6
20 | COc1cc(Cl)c(Cc2nnc(-c3ccco3)s2)cc1[C@@H]1O[C@H](CO)[C@@H](O)[C@H](O)[C@H]1O [Example 97, (2S,3R,4R,5S,6R)-2-(4-Chloro-5-((5-(furan-2-yl)-1,3,4-thiadiazol-2-yl)methyl)-2-methoxyphenyl)-6-(hydroxymethyl)-tetrahydro-2H-pyran-3,4,5-triol] | 5.55
